Measured values reported in US20010044404A1, “Cleaning process and composition” (3M Innovative Properties Company, priority 1995, published 2001).

Tests used:
[1] = Open cup flash point ASTM D1310-86; format: physicochemical
Experimental: Various properties were measured for C4F9OCH3, CHClFCF2OCH3, and blends of each ether compound with cosolvent, trans-1,2-dichloroethylene (hereinafter, t-DCE) or n-butyl bromide, at various weight ratios.

[2] = Rinse agent in co-solvent cleaning of solder flux; conditions: solvating agent 1 minute at about 55° C., then 30 seconds in boiling solvent
Experimental: The ability of alkoxy-substituted perfluorocompounds to function as a rinse agent in a co-solvent cleaning process was evaluated. The above-described aluminum coupon was coated with solder flux (available from Alpha Metals as Alpha 611 rosin, mildly activated flux) by immersing the coupon into a flux-filled beaker. The flux-coated coupon was then dried using a forced air convection drier. The initial amount of the flux on the coupon was determined by weighing it on an analytical balance to the nearest 0.1 mg. The coupon was immersed in a container of a mixed solvating agent comprising approximately 50% methyl decanoate and 50% dipropylene glycol di-n-butyl ether and was sonicated for 1 minute at approximately 55° C. The coupon was then immersed for 30 seconds into alkoxy-substituted perfluorocompound which had been heated to its boiling point. The coupon was weighed again, and the results were recorded in Table 5 below as percent oil removed from the coupon.

[3] = Stability in the presence of oxidant (potassium permanganate in acetone); format: physicochemical; conditions: refluxed four hours
Experimental: To assess oxidative stability, potassium permanganate (20 g, 0.126 mole) was dissolved in acetone, and C4F9OCH3 (500 g of 99.9% purity, 2.0 mole) was added to the resulting solution. The solution was refluxed for four hours, with no indication that the permanganate had been consumed (as evidenced by the absence of brown MnO2). The refluxed solution was then distilled into a 500 mL Barrett trap filled with water. The lower fluorochemical phase of the resulting mixture was separated from the upper phase, was washed with four 1.5 L aliquots of water, and was dried by passage through a column of silica gel to yield 471 g of resulting product.

[4] = Pump oil removal with boiling mixed terpenes/perfluorocompound mixture; conditions: boiling mixture 40 volume % mixed terpenes, 60 volume % fluorinated component
Experimental: The above-described test coupon was dipped into DuoSeal Pump Oil (available from Sargent-Welch), was immersed in a boiling mixture of 40 volume % of a solvating agent comprising mixed terpenes having a boiling range of 243-274° C. and 60 volume % of alkoxy-substituted perfluorocompound (a cleaning composition of the invention), was cooled for 60 seconds, and was then immersed in mixture vapor for 30 seconds. The percent oil removal was determined in the above-described manner.

[5] = Paraffinic oil removal: solvating agent, then rinse in boiling solvent; conditions: methyl caproate/dipropylene glycol di-n-butyl ether 30 seconds, boiling rinse 30 seconds
Experimental: The above-described test coupon was dipped into a paraffinic oil comprising a mixture of linear and branched hydrocarbons (DuoSeal Pump Oil, available from Sargent Welch), was immersed in mixed solvating agent comprising approximately 50% methyl caproate and 50% dipropylene glycol di-n-butyl ether for 30 seconds, and was then rinsed in boiling alkoxy-substituted perfluorocompound for 30 seconds. The percent oil removal was determined in the above-described manner.

[6] = Pump oil removal with n-C6H14/perfluorocompound mixture at room temperature, ultrasonic; conditions: 40 volume % n-C6H14, 60 volume % fluorinated component, 60 seconds
Experimental: The above-described test coupon was dipped into DuoSeal Pump Oil (available from Sargent-Welch) and was then immersed in a mixture of 40 volume % n-C6H14 and 60 volume % alkoxy-substituted perfluorocompound (a cleaning composition of the invention) for 60 seconds at room temperature with ultrasonic agitation. The percent oil removal was determined in the above-described manner.

[7] = Perfluoropolyether oil removal in solvent vapor; conditions: Brayco 815Z; vapor over boiling liquid, 60 seconds
Experimental: The above-described aluminum coupon was dipped into Brayco 815Z perfluoropolyether oil (available from Castrol Inc., molecular weight of about 10,000) and then immersed in alkoxy-substituted perfluorocompound vapor (over the boiling liquid) for 60 seconds. The percent oil removal was determined in the above-described manner.

## COC(F)(F)C(F)(F)C(F)(F)C(F)(F)F [Example C4F9OCH3, perfluorobutyl methyl ether]
[1]; 20 weight % ether, 80 % t-DCE
  Open Cup Flash Point (ASTM D1310-86): none
[1]; 50 weight % ether, 50 % t-DCE
  Open Cup Flash Point (ASTM D1310-86): none
[1]; 80 weight % ether, 20 % t-DCE
  Open Cup Flash Point (ASTM D1310-86): none
[1]; 100 weight % ether, 0 % t-DCE
  Open Cup Flash Point (ASTM D1310-86): none
[2]
  % Removed: 100.0%
[3]
  Stability in the presence of oxidant: stable in the presence of the oxidant
[4]
  Percent Soil Removed: 86.4%
[5]
  Percent Soil Removed: 99.8%
[6]
  Percent Soil Removed: 92.5%
[7]
  Percent Soil Removed: 89.9%
